Reference: PubChem BioAssay (NCI)
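Values below derive from 48-hour exposures of cells grown in 96-well plates, with endpoints linearly interpolated between the two concentrations bracketing the appropriate inhibition level. TGI denotes the concentration required for complete inhibition of growth.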

Experiments:
Test in all cases: DTP human tumour cell line panel, 48 h
[1] = system: HL-60(TB) leukemia
[2] = system: HOP-92 NSCLC
[3] = system: HS 578T breast
[4] = system: M14 melanoma
[5] = system: MDA-MB-231 breast
[6] = system: NCI-H226 lung
[7] = system: NCI-H522 lung
[8] = system: NCI/ADR-RES ovarian
[9] = system: OVCAR-8 ovarian
[10] = system: TK-10 renal

Row | SMILES | TGI [1] [µM] | TGI [2] [µM] | TGI [3] [µM] | TGI [4] [µM] | TGI [5] [µM] | TGI [6] [µM] | TGI [7] [µM] | TGI [8] [µM] | TGI [9] [µM] | TGI [10] [µM]
1 | Cc1nc2cccc(F)c2c(=O)n1-c1nnc(C(F)(F)F)s1 | > 10 | > 10 | > 10 | > 10 | > 10 | > 10 | > 10 | > 10 | > 10 | > 10
2 | COC(=O)c1cc(C)ccc1C1CN=NC12Cc1c(C)cc(C)cc1C2=O (stereo not given) | 29.3 | 40.9 | 55.8 | 41.9 | 65.7 | 87.6 | 34.5 | 46.8 | > 100 | 82.5
3 | CCN(CC)C1Oc2cc3c(cc2C(c2cc(OC)c(OC)c(OC)c2)C1C)OCO3 (stereo not given) | 0.932 | 96.5 | > 100 | > 37.9 | 65.9 | 4.54 | 6.01 | 0.771 | > 43.2 | > 72.1
4 | O=[N+]([O-])c1cc(F)ccc1Sc1ccccc1 | > 10 | > 10 | > 10 | > 10 | > 10 | > 10 | > 10 | > 10 | > 10 | > 10
5 | NC1c2c(Cl)sc(Cl)c2C(=O)C1O (stereo not given) | 30.1 | 84.3 | > 100 | > 100 | > 100 | > 100 | 41.6 | 90.6 | 51.8 | > 100
6 | COC1(OC)C=CC(=O)C=C1 | 15.6 | 11 | > 40.5 | 11.5 | 7.2 | 10.4 | 0.885 | 13.7 | 7.61 | 7.67
7 | COC(=O)c1cc(C)ccc1/C=C1\Cc2c(C)cc(C)cc2C1=O | > 100 | 25.2 | 42.9 | > 100 | > 58.4 | > 82.7 | > 100 | > 100 | > 100 | 40
8 | Clc1nc2c(C#Cc3ccccc3)ncnc2n1C1CCCCO1 (stereo not given) | 33.7 | 34 | 99.5 | 25.9 | 48.4 | > 100 | 25.1 | > 100 | > 100 | 53
9 | CC1CN=C(c2ccc(-c3nc(-c4ccc(C5=NCC(C)N5)cc4)nc(N(C)C)n3)cc2)N1 (stereo not given) | 6.88 | 11.3 | 17.6 | 8.68 | 3.05 | 5.35 | 3.2 | 56.4 | 10 | 11.5
10 | COC(=O)C1CC23C=CCN4CC(C2C)C2(c5ccccc5NC12)C43 (stereo not given) | > 100 | > 100 | > 100 | > 100 | > 100 | > 100 | > 100 | > 100 | > 100 | > 100
11 | O=C(O)CCSC1=NCCN1 | > 100 | > 100 | > 100 | > 100 | > 100 | > 100 | > 100 | > 100 | > 100 | > 100
12 | CC1=NN2C(=N)/C(=C/c3ccccc3)C(=O)N=C2S1 | > 100 | > 100 | > 100 | > 100 | > 100 | > 100 | > 100 | > 51 | > 100 | > 100
13 | COC(=O)[C@](C)(Cc1ccccc1)NC(=O)[C@@H](C)N1[C@@H](c2ccccc2)COC1(C)C | > 100 | > 100 | > 100 | > 100 | > 100 | > 100 | 99.3 | > 100 | > 100 | > 100
14 | C=CC(OC(C)=O)c1ccc(OC(C)=O)cc1 (stereo not given) | 18.6 | 22.8 | 16.6 | 22.9 | 9.12 | 32.1 | 3.57 | 54.3 | 11.7 | 4.99
15 | COc1cc2c(cc1O)CCN(C)[C@H]2Cc1ccc(Oc2c(O)c(OC)cc3c2C[C@H]2c4c(c(OC)c(OC)c(OC)c4-3)CCN2C)cc1 | 10.6 | 7.17 | 17.7 | 10.9 | 9.47 | 13.6 | 11.2 | 14.1 | 13.1 | 11.3
